In article PMC6992764 (Nature Communications, 2020):

How the values were obtained:
[1] = system: PI3K activation in CCR2-expressing Chinese hamster ovary cells; assay: PH-Akt domain translocation assay; type: cell-based; details: 25 µM DSF for 30 min
Excerpt: CCR2-expressing Chinese hamster ovary cells were transfected with PH-Akt-tHcRed. […] Cells were visualized with confocal microscopy using SP5 (Leica).

LLC tumor cells = assay: LLC tumor cell growth (WST-1 assay); type: cell-based; details: 48 h
Protocol: To evaluate the effects of compounds on cell growth, cells were incubated with inhibitors for 48 h, then WST-1 (Dojindo) was added to the culture for the final 30 min. An Envision instrument (PerkinElmer) was used to measure the absorbance of each well at 450 nm versus a 650-nm reference to detect the amount of formazan produced from WST-1 by mitochondrial dehydrogenases in viable cells.

THP-1 cells [2] = assay: Chemotaxis assay using TAXIScan; type: cell-based, human; details: DSF 50 µM, towards CCL2
Protocol: The TAXIScan device (ECI, Tokyo, Japan) is an optically accessible horizontal chemotaxis apparatus consisting of an etched silicon substrate and a flat glass plate, which form two compartments separated by a 5-μm deep microchannel. THP-1 cells were applied through a hole connected to one of the compartments and aligned along the start line on the edge of the channel. Human CCL2 (10 ng mL^–1) was applied through a hole connected to the other compartment to form a concentration gradient in the channel. Time-lapse images were recorded every 30 s for 30 min and cell movement was analyzed using TAXIScan analyzer software (ECI, Tokyo, Japan).

THP-1 cells [3] = assay: Cell viability alongside chemotaxis assay; type: cell-based, human; details: at the concentrations tested in chemotaxis
B16 melanoma = assay: B16 lung metastasis model; type: in vivo, C57BL/6 mice
Protocol: For evaluating subcutaneous tumor growth, LLC or B16 cells (5 × 10^5) in 50 μl PBS were inoculated subcutaneously into the right flanks of mice. Mice were euthanized when their tumor volumes reached 4000 mm^3. Tumor sizes were measured twice a week using calipers. Tumor volume was calculated using the following formula: Volume = (width)^2 × length/2. For the lung metastasis model, 1 × 10^6 LLC or B16 cells in 200 μl PBS were injected intravenously into mice. Mice were euthanized at day 10 after tumor injection for the LLC model and day 5–9 for the B16 model, and the lungs were isolated after perfusion with PBS via the left ventricle. Visible lung metastases were counted in the left lobe. The diameters of metastatic nodules in the lung lobe image were measured using ImageJ software. […] Anti-PD-1 antibody (clone J43, BioXcell) was injected intraperitoneally at a dose of 200 μg per mouse on day 5, 8, 14, and 18 after tumor inoculation. Mice were anesthetized and perfused with PBS and the left lungs were isolated. […] Fluorescence images derived from B16-DsRed cells and stained antibodies were obtained using an SP5 confocal microscope (Leica Microsystems). The F4/80 + macrophage number accumulated in and around the tumor nodule visualized by fluorescent protein was counted per nodule of similar sizes among the control and FROUNT-cKO, vehicle, or DSF-treated groups.

CCN(CC)C(=S)SSC(=S)N(CC)CC [DSF, disulfiram]
membrane localization of PH-Akt upon CCL2 stimulation [1]: significantly impaired | in vitro growth (LLC tumor cells): no effect | chemotaxis directionality (THP-1 cells [2]): impaired | chemotaxis velocity (THP-1 cells [2]): impaired | cytotoxicity (cell viability) (THP-1 cells [3]): without any cytotoxicity | lung metastatic nodule formation (B16 melanoma; B16 i.v., DSF 40 mg kg-1 i.p. daily): significantly reduced | macrophage accumulation around tumor metastatic nodules (B16 melanoma; day 12 after B16 tumor cell injection, F4/80): diminished
